# Experimental data as given in US10407381B2 (THE BOARD OF TRUSTEES OF THE UNIVERSITY OF ILLINOIS, priority 2015, dated 2019).
# Read-outs that look alike come from different tables or passages of the source.
# Key:
# [1] = biological target: T1, human 5-HT2C-INI (Homo sapiens, UniProt P28335); assay: Calcium flux (FLIPR) assay, human 5-HT2C-INI stably expressed in HEK-293 (Flp-In-293) cells; conditions: human 5-HT2C-INI in HEK-293 cells, FLIPR; for EC50: EC50, nM 5-HT2C, NA = no activity at 10 μM; for Emax, % 5-HT 5-HT2C: normalized to 5-HT
# T1 sequence (P28335 33-458): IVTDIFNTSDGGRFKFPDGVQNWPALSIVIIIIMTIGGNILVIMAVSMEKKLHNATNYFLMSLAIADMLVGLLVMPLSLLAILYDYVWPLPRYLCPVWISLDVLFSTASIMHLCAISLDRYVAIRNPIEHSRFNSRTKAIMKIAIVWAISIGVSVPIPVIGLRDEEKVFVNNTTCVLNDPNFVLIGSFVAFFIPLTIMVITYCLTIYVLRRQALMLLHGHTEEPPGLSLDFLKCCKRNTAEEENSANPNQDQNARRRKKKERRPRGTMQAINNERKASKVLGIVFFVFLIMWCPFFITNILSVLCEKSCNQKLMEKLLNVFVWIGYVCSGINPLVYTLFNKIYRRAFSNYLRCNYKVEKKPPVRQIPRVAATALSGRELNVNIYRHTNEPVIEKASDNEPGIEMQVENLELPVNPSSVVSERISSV
# [2] = biological target: 5-HT2A (Homo sapiens, UniProt P28223); assay: Calcium flux (FLIPR) assay, human 5-HT2A stably expressed in HEK-293 (Flp-In-293) cells; conditions: for Emax, % 5-HT 5-HT2A: normalized to 5-HT
# [3] = test system: C57BL/6J mice; assay: Amphetamine-stimulated activity test (open field), schizophrenia-like animal model; conditions: for influence on spontaneous activity, compound alone: 20 mg/kg i.p., 20-Veh groups; for AMPH-stimulated hyperlocomotion relative to the Veh-AMPH group: 10 or 20 mg/kg i.p., 3 mg/kg amphetamine, distance travelled 16-120 min, p-values<0.035; for dose dependence of suppression of AMPH hyperactivity: 10 versus 20 mg/kg i.p.
# [4] = biological target: T2, rat 5-HT2C-INI (Rattus norvegicus, UniProt P08909); assay: Calcium flux (FLIPR) assay, rat 5-HT2C-INI receptors expressed on PO1C cells; type: cell-based; conditions: data acquired with rat 5-HT2C-INI receptors expressed on PO1C cells; for EC50: NA = no activity at 10 μM, read-out: EC50, nM 5-HT2C (footnote a)
# T2 construct: expressed in transfected cells; host or cells: rat PO1C cell line
# T2 sequence (P08909 33-460): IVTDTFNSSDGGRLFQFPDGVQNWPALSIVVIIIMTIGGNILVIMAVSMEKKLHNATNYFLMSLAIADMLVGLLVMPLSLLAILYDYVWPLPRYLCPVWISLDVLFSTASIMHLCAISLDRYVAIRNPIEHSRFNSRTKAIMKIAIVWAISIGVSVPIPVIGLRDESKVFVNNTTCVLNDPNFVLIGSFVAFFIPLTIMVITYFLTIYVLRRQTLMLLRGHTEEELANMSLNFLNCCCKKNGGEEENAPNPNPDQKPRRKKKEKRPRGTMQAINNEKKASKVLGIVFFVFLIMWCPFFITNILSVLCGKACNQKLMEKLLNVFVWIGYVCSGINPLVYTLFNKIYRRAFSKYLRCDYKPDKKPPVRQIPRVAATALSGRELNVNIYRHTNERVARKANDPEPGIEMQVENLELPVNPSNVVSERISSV
# Procedure: Rat 5-HT2C-INI Receptors Expressed on PO1C Cells
# Rat PO1C cell line stably expressing the rat 5-HT2C-INI was plated onto Poly-L-Lys-coated 384-well black clear bottom cell culture plates in DMEM 1% dialyzed FBS (12 000 cells/well). Preceding the experiment, culture medium was removed and 20 μl of assay buffer (20 mM Hepes, pH 7.40, Hanks' balanced salt solution, 2.5 mM probenecid, 1×FLIPR calcium dye) was added and cells incubated at 37° C. for 1 h. Serial dilution of each tested drugs were prepared at 3× final concentration and transfer to a 384-well plates. Cell and drug plates were placed in a FLIPR^TETRA fluorescence imaging plate reader ([…]) and programmed to read baseline for 10 sec (1 read/s) and then add 10 μl of drug/well and to read additional 120 sec. […] Data were plotted and normalized compared to 5-HT and regressed using sigmoidal dose-response function. Data of two independent experiments (n=2) conducted in quadruplicate are presented. Analyses were performed using the software GraphPad Prism 6.0.
# [5] = biological target: 5-HT2B (Homo sapiens, UniProt P41595); assay: Calcium flux (FLIPR) assay, human 5-HT2B stably expressed in HEK-293 (Flp-In-293) cells; conditions: human 5-HT2B in HEK-293 cells; for EC50: EC50, nM 5-HT2B, NA = no activity at 10 μM; for Emax, % 5-HT 5-HT2B: normalized to 5-HT
# [6] = EC50, nM 5-HT2A, human 5-HT2A in HEK-293 cells, FLIPR, NA = no activity at 10 μM
# [7] = human 5-HT2A in HEK-293 cells, FLIPR
# Sequence of 5-HT2B (P41595 whole entry): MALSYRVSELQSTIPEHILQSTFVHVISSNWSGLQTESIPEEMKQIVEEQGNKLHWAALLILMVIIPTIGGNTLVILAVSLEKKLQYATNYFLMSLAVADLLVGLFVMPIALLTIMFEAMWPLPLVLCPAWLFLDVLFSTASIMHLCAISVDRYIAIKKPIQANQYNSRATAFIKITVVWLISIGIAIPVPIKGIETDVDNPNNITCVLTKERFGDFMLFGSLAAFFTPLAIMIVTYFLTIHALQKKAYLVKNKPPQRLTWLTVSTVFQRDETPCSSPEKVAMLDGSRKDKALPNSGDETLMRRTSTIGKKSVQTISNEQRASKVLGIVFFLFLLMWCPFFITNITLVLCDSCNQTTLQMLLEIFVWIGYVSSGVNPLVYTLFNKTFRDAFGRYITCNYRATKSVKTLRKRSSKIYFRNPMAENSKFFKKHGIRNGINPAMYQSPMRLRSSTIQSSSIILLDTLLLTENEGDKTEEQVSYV
# Sequence of 5-HT2A (P28223 whole entry): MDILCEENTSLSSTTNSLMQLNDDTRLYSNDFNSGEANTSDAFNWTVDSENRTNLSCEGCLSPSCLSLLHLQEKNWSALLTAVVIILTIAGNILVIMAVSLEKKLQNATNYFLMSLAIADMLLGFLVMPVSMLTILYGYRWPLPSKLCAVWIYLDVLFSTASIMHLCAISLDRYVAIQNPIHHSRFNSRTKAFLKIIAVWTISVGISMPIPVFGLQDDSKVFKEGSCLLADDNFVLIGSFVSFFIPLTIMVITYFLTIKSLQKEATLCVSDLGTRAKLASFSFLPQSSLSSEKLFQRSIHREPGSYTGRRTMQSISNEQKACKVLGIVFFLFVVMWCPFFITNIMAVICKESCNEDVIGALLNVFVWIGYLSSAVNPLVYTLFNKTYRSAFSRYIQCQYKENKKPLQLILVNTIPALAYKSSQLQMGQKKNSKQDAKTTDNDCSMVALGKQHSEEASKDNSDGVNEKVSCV
"Emax, % 5-HT 5-HT2C (footnote a) [4]",EC50 [4] [nM],SMILES,EC50 [1] [nM],"Emax, % 5-HT 5-HT2C [1]","EC50 [2, 6] [nM]","Emax, % 5-HT 5-HT2A [2, 7]","influence on spontaneous activity, compound alone [3]",AMPH-stimulated hyperlocomotion relative to the Veh-AMPH group [3],dose dependence of suppression of AMPH hyperactivity [3],EC50 [5] [nM],"Emax, % 5-HT 5-HT2B [5]",EC50 [2] [nM]
,,"C=CCOc1ccc(F)cc1C1CC1CN (single isomer, unassigned; (+)) [(+)-Example 8, (+)-(2-(2-(Allyloxy)-5-fluorophenyl)cyclopropyl)methanamine]",4.2,(87%) % 5-HT,374,(56%) % 5-HT,little influence,significantly reduced,dose-dependently suppressed the hyperactivity,,,
(79%) ^a % 5-HT,1800,"NCC1CC1c1cc(Cl)ccc1Oc1ccccc1 (single isomer, unassigned; (+)) [(+)-Example 27, (+)-(2-(5-Chloro-2-phenoxyphenyl)cyclopropyl)methanamine]",,,,,,,,,,
(85%) ^a % 5-HT,495,"NCC1CC1c1cc(Cl)ccc1OCC(F)(F)F (single isomer, unassigned; (+)) [(+)-Example 22, (+)-(2-(5-Chloro-2-(2,2,2-trifluoroethoxy)phenyl)cyclopropyl)methanamine]",,,,,,,,,,
,,"NCC1CC1c1cc(Cl)ccc1OCCF (single isomer, unassigned; (+)) [(+)-Example 19, (+)-(2-(5-Chloro-2-(2-fluoroethoxy)phenyl)cyclopropyl)methanamine]",32,(86%) % 5-HT,1480,(35%) % 5-HT,,significantly reduced,not differentiated by dose,632,(31%) % 5-HT,
(91%) ^a % 5-HT,56,"CC(C)Oc1cc(F)c(Cl)cc1C1CC1CN (single isomer, unassigned; (+)) [(+)-Example 3, (+)-(2-(5-Chloro-4-fluoro-2-isopropoxyphenyl)cyclopropyl)methanamine]",,,,,,,,,,
(42%) ^a % 5-HT,3960,"NCC1CC1c1cc(Cl)ccc1Oc1ccccc1 (single isomer, unassigned; (-)) [(−)-Example 27, (−)-(2-(5-Chloro-2-phenoxyphenyl)cyclopropyl)methanamine]",,,,,,,,,,
,,"C=C(F)COc1ccc(Cl)cc1C1CC1CN (single isomer, unassigned; (+)) [(+)-Example 25, (+)-(2-(5-Chloro-2-((2-fluoroallyl)oxy)phenyl)cyclopropyl)methanamine]",133,(81%) % 5-HT,,,little influence,significantly reduced,dose-dependently suppressed the hyperactivity,1690,(27%) % 5-HT,
,,"NCC1CC1c1cc(F)ccc1OCCF (single isomer, unassigned; (+)) [(+)-Example 10, (+)-(2-(5-Fluoro-2-(2-fluoroethoxy)phenyl)cyclopropyl)methanamine]",3.4,(89%) % 5-HT,359,(76%) % 5-HT,little influence,significantly reduced,not differentiated by dose,,,
(86%) ^a % 5-HT,588,"CC(C)Oc1cc(F)c(Cl)cc1C1CC1CN (single isomer, unassigned; (-)) [(−)-Example 3, (−)-(2-(5-Chloro-4-fluoro-2-isopropoxyphenyl)cyclopropyl)methanamine]",,,,,,,,,,
,,"NCC1CC1c1cc(Cl)c(Cl)cc1OCCF (single isomer, unassigned; (-)) [(−)-Example 34, (−)-(2-(4,5-Dichloro-2-(2-fluoroethoxy)phenyl)cyclopropyl)methanamine]",435,(75%) % 5-HT,,(4%) % 5-HT,,,,,(12%) % 5-HT,
,,"CCCOc1ccc(F)cc1C1CC1CN (single isomer, unassigned; (+)) [(+)-Example 7, (+)-(2-(5-Fluoro-2-propoxyphenyl)cyclopropyl)methanamine]",11,(88%) % 5-HT,1020,(15%) % 5-HT,,,,1990,(33%) % 5-HT,
,,"NCC1CC1c1cc(Cl)ccc1OCC(F)F (single isomer, unassigned; (-)) [(−)-Example 21, (−)-(2-(5-Chloro-2-(2,2-difluoroethoxy)phenyl)cyclopropyl)methanamine]",914,(64%) % 5-HT,1300,(43%) % 5-HT,,,,1480,(30%) % 5-HT,
,,"C#CCOc1ccc(Cl)cc1C1CC1CN (single isomer, unassigned; (+)) [(+)-Example 26, (+)-(2-(5-Chloro-2-(prop-2-yn-1-yloxy)phenyl)cyclopropyl)methanamine]",63,(65%) % 5-HT,1010,(21%) % 5-HT,,,,4600,(29%) % 5-HT,
(51%) ^a % 5-HT,1540,"NCC1CC1c1cc(Cl)ccc1OCc1ccccc1 (single isomer, unassigned; (-)) [(−)-Example 28, (−)-(2-(2-(benzyloxy)-5-chlorophenyl)cyclopropyl)methanamine]",,,,,,,,,,
,,"C=C(C)COc1ccc(Cl)cc1C1CC1CN (single isomer, unassigned; (+)) [(+)-Example 24, (+)-(2-(5-Chloro-2-((2-methylallyl)oxy)phenyl)cyclopropyl)methanamine]",212,(90%) % 5-HT,,(26%) % 5-HT,,,,422,(32%) % 5-HT,903
,,"COc1ccc(F)c(F)c1[C@@H]1C[C@H]1CN (single isomer, unassigned) [(+)-Example 45, (+)-(2-(2,3-Difluoro-6-methoxyphenyl)cyclopropyl)methanamine]",9.5,(108%) % 5-HT,437,(79%) % 5-HT,,,,209,(64%) % 5-HT,
,,"CC(C)Oc1ccc(Cl)cc1C1CC1CN (single isomer, unassigned; (+)) [(+)-Example 14, (+)-(2-(5-Chloro-2-isopropoxyphenyl)cyclopropyl)methanamine]",91,(86%) % 5-HT,4000,(19%) % 5-HT,,,,997,(37%) % 5-HT,
